We go through eight compounds from patent US10028992B2, “Methods of treating muscular dystrophy” (BOARD OF REGENTS OF THE NEVADA SYSTEM OF HIGHER EDUCATION …, priority 2012, dated 2018).

Structures are written as SMILES.

In this test the test system is α7 integrin promoter. Briefly: muscle cell-based assay: α7βgal+/− myoblasts/myotubes, LacZ reporter, β-galactosidase cleavage of FDG. Also on record: species or system mouse. The conditions noted are these: Myotubes; for Results in a α7+/− β-galactosidase assay, Myotubes, 0.5 uM: compound at 0.5 uM; for Results in a α7+/− β-galactosidase assay, Myotubes, 1 uM: compound at 1 uM; for Results in a α7+/− β-galactosidase assay, Myotubes, 5 uM: compound at 5 uM; for Results in a α7+/− β-galactosidase assay, Myotubes, 10 uM: compound at 10 uM; for Results in a α7+/− β-galactosidase assay, Myotubes, 20 uM: compound at 20 uM; for Results in a α7+/− β-galactosidase assay, Myotubes, 40 uM: compound at 40 uM. In outline:
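Primary α7βgal+/− mouse myoblasts (LacZ knocked into α7 integrin exon 1, promoter retained), differentiated; promoter activity read as β-galactosidase conversion of non-fluorescent FDG to fluorescein. Hits followed by dose-response, western analysis and myostatin counterscreen.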

For `O=C(O)c1csc(-c2cccs2)n1` [drawing 362], the “Results in a α7+/− β-galactosidase assay, Myotubes, 0.5 uM” value (shortened to “Results … 0.5 uM”) is given as 0.2703; the “Results in a α7+/− β-galactosidase assay, Myotubes, 1 uM” value (shortened to “Results … 1 uM”) was 0.2837; the “Results in a α7+/− β-galactosidase assay, Myotubes, 5 uM” value (“Results … Myotubes, 5 uM” for short) is reported as 0.2451; the “Results in a α7+/− β-galactosidase assay, Myotubes, 10 uM” value (“Results … 10 uM” below) is −0.02819. Besides, the “Results in a α7+/− β-galactosidase assay, Myotubes, 20 uM” value (“Results … 20 uM” below) was −0.1366 and the “Results in a α7+/− β-galactosidase assay, Myotubes, 40 uM” value (“Results … 40 uM” below) is reported as −0.1007.
Take `COc1cccc(C(=O)COc2ccc3ccc(=O)oc3c2)c1` [drawing 363]: the “Results … 0.5 uM” value is listed as 0.3069; the “Results … 1 uM” value was 0.2317; the “Results … Myotubes, 5 uM” value came out at 0.07669; the “Results … 10 uM” value is listed as 0.03997. Besides, the “Results … 20 uM” value is −0.3325 and the “Results … 40 uM” value was −0.3127.
Regarding `CCCS(=O)(=O)c1nc(S(=O)(=O)c2ccc(C)cc2)c(N2CCCC2)s1` [drawing 364], the “Results … 0.5 uM” value is listed as 0.01021; the “Results … 1 uM” value is reported as 0.05992; the “Results … Myotubes, 5 uM” value is given as −0.01197; the “Results … 10 uM” value is reported as −0.0108. Also, the “Results … 20 uM” value was −0.2345 and the “Results … 40 uM” value is −0.3321.
As to `OC(c1nc2cc(F)ccc2[nH]1)C(O)c1nc2cc(F)ccc2[nH]1` (stereo not drawn) [drawing 365], the “Results … 0.5 uM” value came to 0.0667; the “Results … 1 uM” value was 0.1032; the “Results … Myotubes, 5 uM” value was 0.2081; the “Results … 10 uM” value is given as 0.01319. The “Results … 20 uM” value was −0.09026 and the “Results … 40 uM” value is −0.08066.
On to `COc1ccc(OC)c(NC(=O)CN2CCC(NC(=O)c3ccccc3C)CC2)c1` [drawing 366], for which the “Results … 0.5 uM” value was found to be 0.003237; the “Results … 1 uM” value is recorded as 0.04584; the “Results … Myotubes, 5 uM” value is recorded as −0.09583; the “Results … 10 uM” value was −0.1153. Moreover, the “Results … 20 uM” value is listed as −0.1579 and the “Results … 40 uM” value was −0.08927.
On to `O=C(CCc1ccccc1)c1nnc(-c2ccccc2)o1` [drawing 367], for which the “Results … 0.5 uM” value stood at 0.117; the “Results … 1 uM” value came out at 0.1296; the “Results … Myotubes, 5 uM” value is −0.09921; the “Results … 10 uM” value is −0.1418. In addition, the “Results … 20 uM” value is −0.1125 and the “Results … 40 uM” value is 0.05525.
Consider `COc1ccc(/N=N/c2ccc(N)nc2N)cc1` [drawing 368], for which the “Results … 0.5 uM” value is given as 0.1561; the “Results … 1 uM” value is recorded as 0.1699; the “Results … Myotubes, 5 uM” value is recorded as −0.00041; the “Results … 10 uM” value is given as −0.06379. For the same compound, the “Results … 20 uM” value is reported as −0.1224 and the “Results … 40 uM” value was −0.03271.
Take `N=C(NOC(=O)c1cccc(C(F)(F)F)c1)c1cnccn1` [drawing 369]: the “Results … 0.5 uM” value came out at 0.07542; the “Results … 1 uM” value was 0.07664; the “Results … Myotubes, 5 uM” value is given as −0.08801; the “Results … 10 uM” value is on record as −0.1676. Further, the “Results … 20 uM” value was −0.1858 and the “Results … 40 uM” value is on record as −0.1541.
